Counter-ions that a name gives are not always drawn. Like-named read-outs stand apart in the source and are kept apart here.
Assays:
[1] = biological target: T1, 5-HT1A Sites (Rattus norvegicus, UniProt P19327); test: biochemical; type: binding
T1 sequence (P19327 1-422): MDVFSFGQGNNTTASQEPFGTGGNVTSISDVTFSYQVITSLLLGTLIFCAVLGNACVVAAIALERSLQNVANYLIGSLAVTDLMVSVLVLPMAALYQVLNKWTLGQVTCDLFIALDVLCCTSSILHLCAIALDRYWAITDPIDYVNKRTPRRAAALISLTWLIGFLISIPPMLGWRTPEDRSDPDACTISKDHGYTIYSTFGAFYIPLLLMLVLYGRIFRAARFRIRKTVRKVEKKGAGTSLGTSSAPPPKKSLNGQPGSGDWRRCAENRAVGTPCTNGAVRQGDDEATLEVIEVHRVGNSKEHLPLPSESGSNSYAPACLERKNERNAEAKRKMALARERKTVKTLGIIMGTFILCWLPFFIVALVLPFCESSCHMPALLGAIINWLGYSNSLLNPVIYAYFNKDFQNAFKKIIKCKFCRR

[2] = biological target: T2, 5-HT2A Sites (Rattus norvegicus, UniProt P14842); test: Drug affinity for 5-HT2A sites (3H-Ketanserin binding, cerebral cortex); conditions: Radioligand 3H-Ketanserin; tissue cerebral cortex
T2 construct: Radioligand: ^3 H-Ketanserin Tissue: Cerebral cortex; from tissue; host or cells: cerebral cortex
T2 sequence (P14842 whole entry): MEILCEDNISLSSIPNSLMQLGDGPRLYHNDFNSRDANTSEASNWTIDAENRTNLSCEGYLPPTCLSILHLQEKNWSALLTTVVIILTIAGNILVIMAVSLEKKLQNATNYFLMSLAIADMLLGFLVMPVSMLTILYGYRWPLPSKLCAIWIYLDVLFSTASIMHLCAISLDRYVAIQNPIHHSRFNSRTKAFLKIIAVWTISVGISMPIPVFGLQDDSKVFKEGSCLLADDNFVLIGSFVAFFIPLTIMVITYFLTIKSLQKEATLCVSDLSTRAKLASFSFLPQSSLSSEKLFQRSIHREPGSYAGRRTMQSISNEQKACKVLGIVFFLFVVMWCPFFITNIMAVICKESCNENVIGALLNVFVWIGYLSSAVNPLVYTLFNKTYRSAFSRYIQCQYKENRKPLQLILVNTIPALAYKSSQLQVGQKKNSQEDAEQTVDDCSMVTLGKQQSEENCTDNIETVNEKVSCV

[3] = biological target: T3, [3H]-5-HT uptake by synaptosomes from rat frontal cortex (Rattus norvegicus, UniProt P31652); test: Uptake of [3H]-5-HT by synaptosomes from rat frontal cortex; type: biochemical
T3 construct: synaptosomes from rat frontal cortex; from tissue; host or cells: rat frontal cortex synaptosomes
T3 sequence (P31652 whole entry): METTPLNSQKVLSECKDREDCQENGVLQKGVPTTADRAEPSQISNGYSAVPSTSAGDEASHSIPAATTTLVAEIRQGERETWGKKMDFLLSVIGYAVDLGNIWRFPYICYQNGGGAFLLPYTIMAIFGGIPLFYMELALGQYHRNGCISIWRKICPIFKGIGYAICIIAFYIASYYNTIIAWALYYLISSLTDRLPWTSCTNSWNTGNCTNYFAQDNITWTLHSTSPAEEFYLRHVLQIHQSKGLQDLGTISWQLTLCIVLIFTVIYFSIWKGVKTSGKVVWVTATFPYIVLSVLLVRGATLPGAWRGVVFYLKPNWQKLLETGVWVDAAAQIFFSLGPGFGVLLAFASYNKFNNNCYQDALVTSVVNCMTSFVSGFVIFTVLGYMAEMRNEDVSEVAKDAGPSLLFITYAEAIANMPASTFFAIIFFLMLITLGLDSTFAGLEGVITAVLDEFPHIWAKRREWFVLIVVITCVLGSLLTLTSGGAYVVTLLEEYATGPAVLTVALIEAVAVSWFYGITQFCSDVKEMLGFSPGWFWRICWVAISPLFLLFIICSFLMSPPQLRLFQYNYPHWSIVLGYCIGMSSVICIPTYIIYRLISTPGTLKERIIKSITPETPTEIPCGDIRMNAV

[4] = tested on: rats; conditions: cited from earlier work
[5] = tested on: monkeys; conditions: cited from earlier work
[6] = tested on: alcohol-dependent individuals; conditions: compared to placebo; cited from earlier work
[7] = tested on: alcohol preferring (P) rats; test: Effect on alcohol intake in alcohol preferring (P) rats; type: in vivo, rat
Description: To further illustrate the useful pharmacological properties of compounds of formula (I), the effect of Compound A administered systematically was determined in alcohol preferring (P) rats. Because of its pattern of drinking, the P animal seems to represent a valid genetically based model to approximate the human condition of alcoholism (McBride et al., Alcohol 7:199-205, 1990; Lankford et al., Pharmacol. Biochem. Behav. 8:293-299,1991). After maximally preferred alcohol concentrations had stabilised for four days, Compound A in a dose of 2.5 and 10 mg/kg was administered twice a day over four consecutive days. […] The highest dose of Compound A reduced intake of alcohol by >40%.

[8] = Radioligand 3H-8-OH-DPAT, tissue hippocampus

Molecule CCNC(=O)N1CCN(CCCC(c2ccc(F)cc2)c2ccc(F)cc2)CC1 [Amperozide, reference compound] has a Ki [1] of 805 nM, a Ki [2] of 16 nM and an IC50 [3] of 320 nM. The Intake of alcohol [4] was “significantly attenuate”.
In the case of O=C1CC2(CCCC2)CC(=O)N1CCCCN1CCN(c2ncccn2)CC1 [Buspirone], the Consumption of alcohol [5] is listed as “attenuate significantly”, the Drop-out rate [6] is listed as “lower drop-out rate” and the Signs of craving [6] is listed as “fewer signs of craving”.
Molecule Cc1cccc(N2CCN(CCCCc3ccc(F)cc3)CC2)n1.O=C(O)/C=C/C(=O)O [Compound A, 1-[4-(p-fluorophenyl)-butyl]-4-(6-methyl-2-pyridinyl)-piperazine fumarate] has a Ki [1, 8] of 0.9 nM, a Ki [2] of 10 nM and an IC50 [3] of 12000 nM. The “Food and water after injections” value ([7]; after Compound A injections) was “returned to pre-drug levels”, the “Intake of alcohol (absolute g/kg and proportion of alcohol to total fluid intake)” value ([7]; both doses, 2.5 and 10 mg/kg twice a day over four days, during administration) was “significantly reduced” and the “Ingestion of food and water” value ([7]; each dose, during the period of injection) was “increased the ingestion of food and water above pre-treatment levels”. The “Alcohol intakes after administration versus pre-treatment level” value ([7]; five days following administration, intakes rebounded) was “still being significantly lower than those of the pre-treatment level” and the “Reduction of intake of alcohol” value ([7]; highest dose (10 mg/kg) twice a day over four consecutive days) was greater than 40%.
With CCOc1cccnc1N1CCN(CCCCc2ccc(F)cc2)CC1 [Compound B, 1-[4-(p-fluorophenyl)-butyl]-4-(3-ethoxy-2-pyridinyl)-piperazine fumarate] the Ki [1, 8] was 1.7 nM and the Ki [2] was 1.6 nM.
COC(=O)c1cccnc1N1CCN(CCCC(c2ccc(F)cc2)c2ccc(F)cc2)CC1 [FG5893, 2-[4-[4,4-bis(4-fluorophenyl)butyl]-1-piperazinyl]-3-pyridine-carboxylic acid methyl ester dihydrochloride ethylat, reference compound] gave a Ki [1, 8] of 0.7 nM and an IC50 ([3]; synaptosomes from rat frontal cortex, concentration which inhibits the uptake by 50%, read-out: IC50, uptake of [3H]-5-HT) of 80 nM.
